Seven molecules from ChEMBL document CHEMBL3991601, “The target landscape of clinical kinase drugs” (Science, 2017) can be followed below.

Structures can show the parent of a compound that is named as a salt. Active and inactive are the calls of the source. Rule as the data show it, for most assays here: actives have a measured Kd and inactives only a lower limit. A value given as a limit tells only on which side of the number the result lay.

In experiment [1] the target is T1, Peroxisomal acyl-coenzyme A oxidase 1 (Homo sapiens, UniProt Q15067).
T1 sequence (Q15067 whole entry): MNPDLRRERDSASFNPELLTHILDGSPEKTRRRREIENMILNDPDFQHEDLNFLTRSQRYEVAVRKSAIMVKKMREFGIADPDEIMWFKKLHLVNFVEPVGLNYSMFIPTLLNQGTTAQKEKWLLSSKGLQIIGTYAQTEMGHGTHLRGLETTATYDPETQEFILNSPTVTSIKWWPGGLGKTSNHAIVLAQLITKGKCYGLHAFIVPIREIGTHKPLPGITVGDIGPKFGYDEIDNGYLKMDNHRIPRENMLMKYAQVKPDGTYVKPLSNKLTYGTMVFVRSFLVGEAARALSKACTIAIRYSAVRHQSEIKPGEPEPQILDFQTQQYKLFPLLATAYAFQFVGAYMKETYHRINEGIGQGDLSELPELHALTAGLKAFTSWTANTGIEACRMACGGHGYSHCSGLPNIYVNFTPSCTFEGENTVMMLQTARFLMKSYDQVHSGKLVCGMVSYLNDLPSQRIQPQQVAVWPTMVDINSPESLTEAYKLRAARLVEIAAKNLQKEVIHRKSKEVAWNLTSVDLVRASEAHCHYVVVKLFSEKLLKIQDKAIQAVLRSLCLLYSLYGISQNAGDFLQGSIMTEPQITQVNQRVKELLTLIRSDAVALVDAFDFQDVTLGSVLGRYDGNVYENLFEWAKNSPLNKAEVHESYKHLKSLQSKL

The target of another experiment is T2, Activin receptor type-1B (Homo sapiens, UniProt P36896).
T2 sequence (P36896 whole entry): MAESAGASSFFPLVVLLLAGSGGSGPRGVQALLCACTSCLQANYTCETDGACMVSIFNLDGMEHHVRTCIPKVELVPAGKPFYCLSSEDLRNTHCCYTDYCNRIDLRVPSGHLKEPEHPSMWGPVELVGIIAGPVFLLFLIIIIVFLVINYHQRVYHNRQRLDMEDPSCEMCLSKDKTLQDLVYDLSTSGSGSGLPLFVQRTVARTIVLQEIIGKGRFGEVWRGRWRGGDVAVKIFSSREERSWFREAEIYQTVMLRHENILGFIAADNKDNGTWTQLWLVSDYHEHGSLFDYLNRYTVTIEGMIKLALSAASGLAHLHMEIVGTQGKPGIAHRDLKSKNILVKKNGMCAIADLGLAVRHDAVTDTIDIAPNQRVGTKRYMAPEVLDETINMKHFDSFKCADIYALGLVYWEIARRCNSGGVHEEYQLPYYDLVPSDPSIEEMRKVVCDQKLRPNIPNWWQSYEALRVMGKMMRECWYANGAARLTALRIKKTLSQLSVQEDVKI

The target of experiment [2] is Casein kinase I isoform delta (Homo sapiens, UniProt P48730).
Chain of Casein kinase I isoform delta (P48730 whole entry, canonical isoform): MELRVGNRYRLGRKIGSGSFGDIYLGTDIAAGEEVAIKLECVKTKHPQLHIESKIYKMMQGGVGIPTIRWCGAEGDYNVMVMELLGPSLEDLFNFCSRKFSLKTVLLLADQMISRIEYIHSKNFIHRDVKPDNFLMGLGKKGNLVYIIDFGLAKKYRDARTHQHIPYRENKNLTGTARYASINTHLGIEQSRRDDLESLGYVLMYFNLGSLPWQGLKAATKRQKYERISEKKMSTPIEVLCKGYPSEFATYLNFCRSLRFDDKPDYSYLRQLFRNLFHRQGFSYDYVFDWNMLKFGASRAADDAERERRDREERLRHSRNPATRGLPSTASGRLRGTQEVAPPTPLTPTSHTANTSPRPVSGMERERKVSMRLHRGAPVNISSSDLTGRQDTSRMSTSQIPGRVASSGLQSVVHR
The next experiment has as its target T3, Ephrin type-B receptor 3 (Homo sapiens, UniProt P54753).
T3 sequence (P54753 whole entry): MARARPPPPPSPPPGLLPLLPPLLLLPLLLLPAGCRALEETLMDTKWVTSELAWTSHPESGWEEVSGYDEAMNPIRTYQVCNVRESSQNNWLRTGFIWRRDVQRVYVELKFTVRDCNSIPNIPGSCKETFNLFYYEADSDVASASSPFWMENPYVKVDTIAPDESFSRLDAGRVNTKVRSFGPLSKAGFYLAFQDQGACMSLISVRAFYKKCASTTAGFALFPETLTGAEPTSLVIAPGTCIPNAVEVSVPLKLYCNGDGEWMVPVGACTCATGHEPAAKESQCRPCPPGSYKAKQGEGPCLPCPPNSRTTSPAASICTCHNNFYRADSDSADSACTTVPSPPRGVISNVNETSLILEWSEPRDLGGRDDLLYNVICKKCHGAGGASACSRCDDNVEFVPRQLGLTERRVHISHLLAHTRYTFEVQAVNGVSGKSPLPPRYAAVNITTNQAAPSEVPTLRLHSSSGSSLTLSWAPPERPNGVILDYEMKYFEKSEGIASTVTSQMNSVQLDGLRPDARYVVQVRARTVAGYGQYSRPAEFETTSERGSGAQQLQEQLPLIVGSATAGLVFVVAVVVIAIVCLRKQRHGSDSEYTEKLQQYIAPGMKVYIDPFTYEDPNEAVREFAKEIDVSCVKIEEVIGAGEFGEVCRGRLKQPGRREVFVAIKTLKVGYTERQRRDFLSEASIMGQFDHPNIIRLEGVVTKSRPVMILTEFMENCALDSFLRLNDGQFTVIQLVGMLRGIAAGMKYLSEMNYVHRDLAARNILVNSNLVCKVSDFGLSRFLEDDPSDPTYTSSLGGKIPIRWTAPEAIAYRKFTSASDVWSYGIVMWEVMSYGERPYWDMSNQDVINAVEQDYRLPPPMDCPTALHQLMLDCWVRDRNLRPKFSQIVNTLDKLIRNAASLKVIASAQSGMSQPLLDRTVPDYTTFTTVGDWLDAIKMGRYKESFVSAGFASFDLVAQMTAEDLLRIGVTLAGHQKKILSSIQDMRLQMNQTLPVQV

Experiment [3] concerns the target Tyrosine-protein kinase FRK (Homo sapiens, UniProt P42685).
The target of experiment [4] is Tyrosine-protein kinase HCK (Homo sapiens, UniProt P08631).
Chain of Tyrosine-protein kinase HCK (P08631 whole entry): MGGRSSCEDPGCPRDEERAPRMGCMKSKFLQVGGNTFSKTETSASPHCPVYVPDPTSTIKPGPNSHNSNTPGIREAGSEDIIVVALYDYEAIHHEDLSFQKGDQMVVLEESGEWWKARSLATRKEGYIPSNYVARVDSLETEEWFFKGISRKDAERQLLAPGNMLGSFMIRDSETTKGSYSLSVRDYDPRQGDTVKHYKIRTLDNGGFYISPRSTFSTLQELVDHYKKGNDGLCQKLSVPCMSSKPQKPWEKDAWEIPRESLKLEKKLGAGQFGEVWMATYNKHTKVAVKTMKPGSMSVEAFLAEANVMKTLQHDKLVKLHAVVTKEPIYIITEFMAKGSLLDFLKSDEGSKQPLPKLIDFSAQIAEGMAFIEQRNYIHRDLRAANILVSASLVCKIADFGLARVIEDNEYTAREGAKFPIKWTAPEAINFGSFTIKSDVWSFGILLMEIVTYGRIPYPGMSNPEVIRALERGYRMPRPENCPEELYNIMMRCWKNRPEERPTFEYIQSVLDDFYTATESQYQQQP
The target in another experiment is T4, Scaffold protein ILK (Homo sapiens, UniProt Q13418).
T4 sequence (Q13418 whole entry): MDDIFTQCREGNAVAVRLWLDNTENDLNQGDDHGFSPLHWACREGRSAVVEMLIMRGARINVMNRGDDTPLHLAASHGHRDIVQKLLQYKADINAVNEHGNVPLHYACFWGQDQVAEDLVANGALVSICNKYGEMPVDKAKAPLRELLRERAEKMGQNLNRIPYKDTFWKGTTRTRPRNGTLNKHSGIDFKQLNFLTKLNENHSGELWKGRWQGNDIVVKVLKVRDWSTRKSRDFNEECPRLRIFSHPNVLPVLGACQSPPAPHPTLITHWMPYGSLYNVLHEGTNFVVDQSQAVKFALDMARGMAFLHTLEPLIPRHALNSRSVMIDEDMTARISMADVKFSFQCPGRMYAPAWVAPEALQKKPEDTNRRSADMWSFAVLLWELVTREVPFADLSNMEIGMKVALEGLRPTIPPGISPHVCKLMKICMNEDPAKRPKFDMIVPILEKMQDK

Experiment [5] concerns the target Mitogen-activated protein kinase kinase kinase 1 (Homo sapiens, UniProt Q13233).
Experiment [6] addresses Ribosomal protein S6 kinase alpha-5 (Homo sapiens, UniProt O75582).
For experiment [7], the target named is Proto-oncogene tyrosine-protein kinase Src (Homo sapiens, UniProt P12931).
Chain of Proto-oncogene tyrosine-protein kinase Src (P12931 2-536 limits assumed): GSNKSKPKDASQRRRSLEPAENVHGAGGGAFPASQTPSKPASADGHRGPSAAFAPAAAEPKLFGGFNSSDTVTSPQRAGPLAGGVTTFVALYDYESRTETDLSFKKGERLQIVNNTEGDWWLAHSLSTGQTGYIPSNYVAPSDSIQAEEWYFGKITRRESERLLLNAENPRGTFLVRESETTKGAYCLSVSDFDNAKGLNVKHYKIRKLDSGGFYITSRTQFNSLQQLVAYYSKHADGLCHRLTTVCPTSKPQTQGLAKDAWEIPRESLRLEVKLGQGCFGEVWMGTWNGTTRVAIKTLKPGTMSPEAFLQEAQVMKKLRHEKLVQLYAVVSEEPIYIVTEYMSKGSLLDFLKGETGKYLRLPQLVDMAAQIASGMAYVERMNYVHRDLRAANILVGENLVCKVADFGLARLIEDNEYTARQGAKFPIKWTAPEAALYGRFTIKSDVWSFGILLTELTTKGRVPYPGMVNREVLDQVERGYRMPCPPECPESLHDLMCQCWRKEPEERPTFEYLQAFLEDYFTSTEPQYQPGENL
Also: in the data inactive means no Kd found up to 30 µM.

Chain of Mitogen-activated protein kinase kinase kinase 1 (Q13233 whole entry): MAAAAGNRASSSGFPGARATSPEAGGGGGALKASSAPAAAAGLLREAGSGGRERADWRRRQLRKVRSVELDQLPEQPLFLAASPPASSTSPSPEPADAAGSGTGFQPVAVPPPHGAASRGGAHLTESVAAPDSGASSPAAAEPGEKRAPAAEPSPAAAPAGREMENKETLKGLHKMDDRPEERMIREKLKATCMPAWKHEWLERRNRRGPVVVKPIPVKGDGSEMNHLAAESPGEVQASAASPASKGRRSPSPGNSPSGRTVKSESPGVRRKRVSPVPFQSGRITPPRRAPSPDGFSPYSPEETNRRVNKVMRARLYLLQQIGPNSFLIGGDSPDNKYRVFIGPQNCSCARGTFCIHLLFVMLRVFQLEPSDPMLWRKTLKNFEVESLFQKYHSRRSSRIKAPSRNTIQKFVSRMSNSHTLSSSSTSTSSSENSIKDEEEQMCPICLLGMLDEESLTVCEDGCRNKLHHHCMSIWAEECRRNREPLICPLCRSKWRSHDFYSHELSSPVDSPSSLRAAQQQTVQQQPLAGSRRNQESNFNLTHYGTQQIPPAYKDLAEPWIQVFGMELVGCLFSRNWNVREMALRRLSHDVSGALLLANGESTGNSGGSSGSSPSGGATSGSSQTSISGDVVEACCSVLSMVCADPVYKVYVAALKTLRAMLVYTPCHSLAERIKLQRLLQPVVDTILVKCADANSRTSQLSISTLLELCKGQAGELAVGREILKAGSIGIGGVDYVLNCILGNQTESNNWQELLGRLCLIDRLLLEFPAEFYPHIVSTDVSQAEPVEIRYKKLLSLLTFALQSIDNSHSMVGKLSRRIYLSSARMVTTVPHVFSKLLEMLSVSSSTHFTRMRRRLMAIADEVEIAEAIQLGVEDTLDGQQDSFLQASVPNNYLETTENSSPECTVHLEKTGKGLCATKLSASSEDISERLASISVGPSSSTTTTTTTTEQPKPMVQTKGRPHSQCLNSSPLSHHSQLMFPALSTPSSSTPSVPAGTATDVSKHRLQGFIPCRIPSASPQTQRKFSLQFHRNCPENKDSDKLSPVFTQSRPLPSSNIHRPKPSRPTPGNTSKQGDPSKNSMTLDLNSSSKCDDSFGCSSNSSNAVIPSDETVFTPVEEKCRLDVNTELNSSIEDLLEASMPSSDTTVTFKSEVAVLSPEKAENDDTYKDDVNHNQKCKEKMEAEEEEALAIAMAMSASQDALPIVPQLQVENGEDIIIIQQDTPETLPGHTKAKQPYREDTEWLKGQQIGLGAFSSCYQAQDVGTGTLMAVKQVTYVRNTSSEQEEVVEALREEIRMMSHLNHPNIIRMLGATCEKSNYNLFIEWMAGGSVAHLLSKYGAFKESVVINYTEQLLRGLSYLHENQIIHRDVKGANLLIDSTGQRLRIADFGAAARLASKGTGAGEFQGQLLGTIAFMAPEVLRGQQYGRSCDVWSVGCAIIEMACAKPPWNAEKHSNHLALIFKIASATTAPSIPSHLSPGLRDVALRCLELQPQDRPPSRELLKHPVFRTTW
Chain of Ribosomal protein S6 kinase alpha-5 (O75582 whole entry): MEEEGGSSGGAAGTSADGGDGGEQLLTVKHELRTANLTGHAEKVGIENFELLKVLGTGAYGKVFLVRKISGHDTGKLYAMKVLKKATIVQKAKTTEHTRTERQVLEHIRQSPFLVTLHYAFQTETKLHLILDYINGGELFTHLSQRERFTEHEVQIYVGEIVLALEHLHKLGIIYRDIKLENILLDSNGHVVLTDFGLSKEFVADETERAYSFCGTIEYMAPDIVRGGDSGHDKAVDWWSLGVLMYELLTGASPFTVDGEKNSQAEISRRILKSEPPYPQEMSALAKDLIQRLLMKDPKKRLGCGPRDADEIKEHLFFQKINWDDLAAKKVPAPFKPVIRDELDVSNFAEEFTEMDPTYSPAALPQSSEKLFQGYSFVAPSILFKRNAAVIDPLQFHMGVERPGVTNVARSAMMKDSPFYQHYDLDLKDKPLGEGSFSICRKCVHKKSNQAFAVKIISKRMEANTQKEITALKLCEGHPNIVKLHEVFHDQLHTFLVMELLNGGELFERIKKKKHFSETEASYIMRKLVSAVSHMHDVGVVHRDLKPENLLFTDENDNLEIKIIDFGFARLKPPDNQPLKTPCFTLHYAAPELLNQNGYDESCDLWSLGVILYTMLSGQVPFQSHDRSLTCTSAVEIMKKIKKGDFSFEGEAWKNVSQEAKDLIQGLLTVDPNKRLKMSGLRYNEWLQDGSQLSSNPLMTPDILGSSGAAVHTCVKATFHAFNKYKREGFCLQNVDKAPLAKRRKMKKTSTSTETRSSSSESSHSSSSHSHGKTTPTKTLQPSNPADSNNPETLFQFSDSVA
Chain of Tyrosine-protein kinase FRK (P42685 whole entry): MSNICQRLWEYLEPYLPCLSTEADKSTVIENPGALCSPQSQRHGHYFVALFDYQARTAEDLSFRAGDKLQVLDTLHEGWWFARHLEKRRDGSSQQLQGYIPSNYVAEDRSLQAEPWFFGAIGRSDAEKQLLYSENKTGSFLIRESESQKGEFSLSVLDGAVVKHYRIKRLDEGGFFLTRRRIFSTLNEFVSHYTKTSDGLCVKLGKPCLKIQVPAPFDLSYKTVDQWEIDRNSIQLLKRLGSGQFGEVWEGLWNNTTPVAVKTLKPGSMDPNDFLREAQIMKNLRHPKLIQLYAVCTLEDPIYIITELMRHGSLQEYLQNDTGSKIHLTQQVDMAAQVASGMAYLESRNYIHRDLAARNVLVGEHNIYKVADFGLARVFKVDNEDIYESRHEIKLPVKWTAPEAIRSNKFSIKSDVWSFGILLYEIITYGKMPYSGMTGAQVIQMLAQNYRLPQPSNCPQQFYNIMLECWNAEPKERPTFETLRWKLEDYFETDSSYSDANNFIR

In general, Kd refers to a measure of binding affinity in units of concentration. Take `NC(=O)Nc1cc(-c2cccc(F)c2)sc1C(=O)N[C@H]1CCCNC1` [AZD-7762]: the Kd is > 30 µM (inactive) in experiment [1]; > 30 µM (inactive) at Activin receptor type-1B; > 30 µM (inactive) in [2]; > 30 µM (inactive) at Ephrin type-B receptor 3; 1.21 µM (active) in experiment [3]; 0.103 µM (active) in experiment [4]. Besides, the Kd was > 30 µM (inactive) at Scaffold protein ILK, > 30 µM (inactive) in [5], > 30 µM (inactive) in experiment [6] and 0.109 µM (active) in experiment [7].

On to `Cn1cnc2c(F)c(Nc3ccc(Br)cc3F)c(C(=O)NOCCO)cc21` [BINIMETINIB], for which the Kd (in experiment [1]; at Activin receptor type-1B; in experiment [2]; on Ephrin type-B receptor 3; in experiment [3]; in experiment [4]) was > 30 µM (inactive) in each case. For the same molecule, the Kd (on Scaffold protein ILK; in experiment [5]; in [6]; in experiment [7]) was > 30 µM (inactive) throughout.

In the case of `CCn1c(C(=O)N(C2CC2)C2CC2)cc2c3c(ncn3C)c(Nc3cc(C)n(C)n3)nc21` [BMS-911543], the Kd (in experiment [1]; at Activin receptor type-1B; in experiment [2]; at Ephrin type-B receptor 3; in [3]; in experiment [4]) was > 30 µM (inactive) in each case. Besides, the Kd (at Scaffold protein ILK; in experiment [5]; in experiment [6]; in experiment [7]) was > 30 µM (inactive) in each case.

With `Cc1cc(Nc2ncc(Cl)c(Nc3ccccc3S(=O)(=O)C(C)C)n2)c(OC(C)C)cc1C1CCNCC1` [CERITINIB], the Kd (in experiment [1]; at Activin receptor type-1B; in experiment [2]; on Ephrin type-B receptor 3; in experiment [3]; in experiment [4]) was > 30 µM (inactive) each time. Also, the Kd (on Scaffold protein ILK; in experiment [5]; in [6]; in [7]) was > 30 µM (inactive) in each case.

With `COc1c(OCCCN2CCOCC2)ccc2c1N=C(NC(=O)c1cnc(N)nc1)N1CCN=C21` [COPANLISIB], the Kd (in [1]; at Activin receptor type-1B; in experiment [2]; on Ephrin type-B receptor 3; in experiment [3]; in [4]) was > 30 µM (inactive) each time. The Kd (on Scaffold protein ILK; in [5]; in experiment [6]; in experiment [7]) was > 30 µM (inactive) throughout.

On to `C#Cc1cccc(Nc2ncnc3cc(OC)c(OCCCCCCC(=O)NO)cc23)c1` [CUDC-101], for which the Kd (in experiment [1]; on Activin receptor type-1B; in experiment [2]; at Ephrin type-B receptor 3; in experiment [3]; in experiment [4]) was > 30 µM (inactive) each time. The Kd on Scaffold protein ILK was > 30 µM (inactive); in experiment [5] it was 1.28 µM (active); in experiment [6] it was > 30 µM (inactive); in experiment [7] it was > 30 µM (inactive).

As to `CCS(=O)(=O)N1CCN(c2ccc(Nc3ncc(C(N)=O)c(NC4CC4)n3)cc2)CC1` [Cerdulatinib Hydrochloride], the Kd (in [1]; on Activin receptor type-1B; in experiment [2]; at Ephrin type-B receptor 3; in experiment [3]; in experiment [4]) was > 30 µM (inactive) throughout. Further, the Kd (on Scaffold protein ILK; in [5]; in experiment [6]; in experiment [7]) was > 30 µM (inactive) each time.
